The record followed here is patent US4153709A, “N-Heterocyclic ureas as immune regulants” (Eli Lilly and Company, priority 1977, dated 1979).

This assay has as its system antibody response to sheep blood cells (hemaglutination titer). Nature of the assay: Immune regulating test: suppression of hemaglutination titer by 4-fold factor in mice (i.p. drug, i.p. sheep blood cells), Tables 1-15. The class given is in vivo, Swiss mice. The conditions noted are these: Mus musculus, ip, 192 h, × 3, intraperitoneal, minimum dose to suppress the hemaglutination titer by a 4-fold factor, 8 days after antigen, read-out: Immuno-Suppressant ED4-Fold. As to the method:
The ability of compounds according to the above formulas to alter immune mechanisms in a host animal was measured by their activity according to the following test. Groups of five 20-gram Swiss mice were injected intraperitoneally with standardized suspensions of an antigen--in this instance sheep blook cells. […] Eight days after injection of the antigen, the mice were bled and the sera from each group pooled. Antibody determinations were made on the serum pools by a hemaglutination pattern procedure and comparisons made between treated and control animals. In Tables 1-18 which follow, the activity of the compounds listed therein is given in terms of the minimum dose of drug necessary to suppress the hemaglutination titer by a 4-fold factor in the treated mice as compared with control titers.
Take `O=C(Nc1ccccc1)Nc1nc2ccccc2n1-c1ccccc1` [Table 8: phenyl, phenyl]: the minimal effective dose is 50 mg/kg.
`Cn1c(NC(=O)Nc2cccc3ccccc23)nc2ccccc21` [Table 8: α-naphthyl, methyl]: the minimal effective dose was over 50 mg/kg.
In the case of `O=C(Nc1cccc2ccccc12)Nc1nc2ccccc2n1-c1ccccc1` [Table 8: α-naphthyl, phenyl] it was 100 mg/kg; in that of `O=C(Nc1ccc(F)cc1)Nc1nc2cc3ccccc3cc2[nH]1` [Table 9: p-fluorophenyl], over 25 mg/kg.
Take `O=C(Nc1ccccc1)Nc1nc2cc3ccccc3cc2[nH]1` [Table 9: phenyl]: the minimal effective dose came to 25 mg/kg.
With `O=C(Nc1nc2cc3ccccc3cc2[nH]1)Nc1cccc2ccccc12` [Table 9: α-naphthyl], the minimal effective dose was found to be 50 mg/kg.
With `O=C(Nc1cccc(Cl)c1)Nc1nc2c(ccc3ccccc32)[nH]1` [Table 10: m-chlorophenyl], the minimal effective dose was 0.05 mg/kg.
As for `O=C(Nc1ccc(F)cc1)Nc1nc2c(ccc3ccccc32)[nH]1` [Table 10: p-fluorophenyl], the minimal effective dose turned out to be 25 mg/kg.
Take `O=C(Nc1ccccc1)Nc1nc2c(ccc3ccccc32)[nH]1` [Table 10: phenyl]: the minimal effective dose worked out at 50 mg/kg.
In the case of `O=C(Nc1nc2c(ccc3ccccc32)[nH]1)Nc1cccc2ccccc12` [Table 10: α-naphthyl] it was over 6.2 mg/kg; in that of `O=C(Nc1nc2ccccc2s1)Nc1cc(Cl)ccc1Cl` [Table 11: 2,5-dichlorophenyl, H, S], 12.5 mg/kg; in that of `O=C(Nc1ccc(Cl)c(Cl)c1)Nc1nc2ccccc2s1` [Table 11: 3,4-dichlorophenyl, H, S], 12.5 mg/kg.
`O=C(Nc1cccc(Cl)c1)Nc1nc2c(Cl)cccc2s1` [Table 11: m-chlorophenyl, 4-Cl, S]: the minimal effective dose is under 50 mg/kg.
For the molecule `O=C(Nc1cccc(Cl)c1)Nc1nc2cc(Cl)ccc2o1` [Table 11: m-chlorophenyl, 5-Cl, O], the minimal effective dose is 400 mg/kg.
As for `COc1ccc2nc(NC(=O)Nc3cccc(Cl)c3)sc2c1` [Table 11: m-chlorophenyl, 6-CH3 O, S], the minimal effective dose turned out to be 12.5 mg/kg.
In the case of `O=C(Nc1cccc(Cl)c1)Nc1nc2ccccc2s1` [Table 11: m-chlorophenyl, H, S], the minimal effective dose was determined as 1.6 mg/kg.
For the molecule `Cc1cccc(NC(=O)Nc2nc3cc(C)c(C)cc3s2)c1` [Table 11: m-tolyl, 5,6-dimethyl, S], the minimal effective dose worked out at 25 mg/kg.
Regarding `COc1ccc2nc(NC(=O)Nc3cccc(C)c3)sc2c1` [Table 11: m-tolyl, 6-CH3 O, S], the minimal effective dose was under 25 mg/kg.
The value for `O=C(Nc1cccc(C(F)(F)F)c1)Nc1nc2ccccc2s1` [Table 11: m-trifluoromethylphenyl, H, S] was under 50 mg/kg; that for `COc1ccccc1NC(=O)Nc1nc2ccccc2s1` [Table 11: o-anisyl, H, S] was 50 mg/kg.
In the case of `COc1ccc2nc(NC(=O)Nc3ccccc3Cl)sc2c1` [Table 11: o-chlorophenyl, 6-CH3 O, S] it was under 50 mg/kg; in that of `O=C(Nc1nc2ccccc2s1)Nc1ccccc1Cl` [Table 11: o-chlorophenyl, H, S], under 50 mg/kg; in that of `CCOc1ccccc1NC(=O)Nc1nc2ccccc2s1` [Table 11: o-ethoxyphenyl, H, S], under 50 mg/kg.
The value for `O=C(Nc1nc2ccccc2s1)Nc1ccccc1F` [Table 11: o-fluorophenyl, H, S] was under 6.2 mg/kg; that for `Cc1cc2nc(NC(=O)Nc3ccccc3C)sc2cc1C` [Table 11: o-tolyl, 5,6-dimethyl, S] was under 25 mg/kg.
Consider `COc1ccc2nc(NC(=O)Nc3ccccc3C)sc2c1` [Table 11: o-tolyl, 6-CH3 O, S], for which the minimal effective dose was under 50 mg/kg.
The value for `Cc1ccccc1NC(=O)Nc1nc2ccccc2s1` [Table 11: o-tolyl, H, S] was under 50 mg/kg.
In the case of `COc1ccc(NC(=O)Nc2nc3ccccc3s2)cc1` [Table 11: p-anisyl, H, S] it was 50 mg/kg; in that of `Cc1cc2nc(NC(=O)Nc3ccc(Br)cc3)sc2cc1C` [Table 11: p-bromophenyl, 5,6-dimethyl, S], 100 mg/kg.
In the case of `COc1ccc2nc(NC(=O)Nc3ccc(Br)cc3)sc2c1` [Table 11: p-bromophenyl, 6-CH3 O, S] it was 100 mg/kg; in that of `O=C(Nc1ccc(Br)cc1)Nc1nc2ccccc2s1` [Table 11: p-bromophenyl, H, S], 100 mg/kg.
Consider `COc1ccc2nc(NC(=O)Nc3ccc(Cl)cc3)sc2c1` [Table 11: p-chlorophenyl, 6-CH3 O, S], for which the minimal effective dose was under 50 mg/kg.
In the case of `O=C(Nc1ccc(Cl)cc1)Nc1nc2ccccc2s1` [Table 11: p-chlorophenyl, H, S] it was under 6.2 mg/kg; in that of `O=C(Nc1ccc(F)cc1)Nc1nc2ccccc2s1` [Table 11: p-fluorophenyl, H, S], under 25 mg/kg; in that of `Cc1ccc(NC(=O)Nc2nc3cc(C)c(C)cc3s2)cc1` [Table 11: p-tolyl, 5,6-dimethyl, S], 100 mg/kg.
The value for `COc1ccc2nc(NC(=O)Nc3ccc(C)cc3)sc2c1` [Table 11: p-tolyl, 6-CH3 O, S] was under 100 mg/kg; that for `Cc1ccc(NC(=O)Nc2nc3ccccc3s2)cc1` [Table 11: p-tolyl, H, S] was 100 mg/kg.
Turning to `O=C(Nc1ccccc1)Nc1nc2c(Cl)cccc2s1` [Table 11: phenyl, 4-Cl, S], the minimal effective dose was under 12.5 mg/kg.
For the molecule `Cc1cc2nc(NC(=O)Nc3ccccc3)sc2cc1C` [Table 11: phenyl, 5,6-dimethyl, S], the minimal effective dose was 100 mg/kg.
The value for `O=C(Nc1ccccc1)Nc1nc2cc(Cl)ccc2o1` [Table 11: phenyl, 5-Cl, O] was 200 mg/kg.
On to `O=C(Nc1ccccc1)Nc1nc2ccccc2o1` [Table 11: phenyl, H, O], for which the minimal effective dose came to 50 mg/kg.
For the molecule `Cc1cc2nc(NC(=O)Nc3cccc4ccccc34)sc2cc1C` [Table 11: α-naphthyl, 5,6-dimethyl, S], the minimal effective dose was 50 mg/kg.
In the case of `O=C(Nc1nc2cc(Cl)ccc2o1)Nc1cccc2ccccc12` [Table 11: α-naphthyl, 5-Cl, O], the minimal effective dose stood at 200 mg/kg.
In the case of `COc1ccc2nc(NC(=O)Nc3cccc4ccccc34)sc2c1` [Table 11: α-naphthyl, 6-CH3 O, S] it was under 50 mg/kg; in that of `O=C(Nc1nc2ccccc2o1)Nc1cccc2ccccc12` [Table 11: α-naphthyl, H, O], 50 mg/kg.
For the molecule `CN(C(=O)Nc1ccc(Cl)cc1)c1nc2ccccc2s1` [Table 12: p-chlorophenyl], the minimal effective dose was under 50 mg/kg.
In the case of `CN(C(=O)Nc1ccccc1)c1nc2ccccc2s1` [Table 12: phenyl] it was 50 mg/kg; in that of `CN(C(=O)Nc1cccc2ccccc12)c1nc2ccccc2s1` [Table 12: α-naphthyl], 50 mg/kg; in that of `O=C(Nc1nc2c(s1)CCCC2)Nc1cccc2ccccc12` [Table 13: α-naphthyl], under 50 mg/kg.
The value for `O=C(Nc1nc2c(ccc3ccccc32)s1)Nc1cc(Cl)ccc1Cl` [Table 14: 2,5-dichlorophenyl] was 100 mg/kg; that for `O=C(Nc1ccc(Cl)c(Cl)c1)Nc1nc2c(ccc3ccccc32)s1` [Table 14: 3,4-dichlorophenyl] was 3.1 mg/kg.
In the case of `O=C(Nc1cccc(Cl)c1)Nc1nc2c(ccc3ccccc32)s1` [Table 14: m-chlorophenyl] it was under 1.6 mg/kg.
As for `Cc1cccc(NC(=O)Nc2nc3c(ccc4ccccc43)s2)c1` [Table 14: m-tolyl], the minimal effective dose amounted to 3.1 mg/kg.
`O=C(Nc1cccc(C(F)(F)F)c1)Nc1nc2c(ccc3ccccc32)s1` [Table 14: m-trifluoromethylphenyl]: the minimal effective dose is under 6.2 mg/kg.
As for `O=C(Nc1nc2c(ccc3ccccc32)s1)Nc1ccccc1Cl` [Table 14: o-chlorophenyl], the minimal effective dose came out at 6.2 mg/kg.
`O=C(Nc1nc2c(ccc3ccccc32)s1)Nc1ccccc1F` [Table 14: o-fluorophenyl]: the minimal effective dose came to 3.1 mg/kg.
In the case of `Cc1ccccc1NC(=O)Nc1nc2c(ccc3ccccc32)s1` [Table 14: o-tolyl], the minimal effective dose was under 1.6 mg/kg.
With `O=C(Nc1ccc(Br)cc1)Nc1nc2c(ccc3ccccc32)s1` [Table 14: p-bromophenyl], the minimal effective dose is under 50 mg/kg.
Turning to `O=C(Nc1ccc(Cl)cc1)Nc1nc2c(ccc3ccccc32)s1` [Table 14: p-chlorophenyl], the minimal effective dose is under 100 mg/kg.
Turning to `O=C(Nc1ccc(F)cc1)Nc1nc2c(ccc3ccccc32)s1` [Table 14: p-fluorophenyl], the minimal effective dose was found to be 12.5 mg/kg.
The value for `Cc1ccc(NC(=O)Nc2nc3c(ccc4ccccc43)s2)cc1` [Table 14: p-tolyl] was 6.2 mg/kg.
In the case of `O=C(Nc1ccccc1)Nc1nc2c(ccc3ccccc32)s1` [Table 14: phenyl] it was under 12.5 mg/kg; in that of `O=C(Nc1nc2c(ccc3ccccc32)s1)Nc1cccc2ccccc12` [Table 14: α-naphthyl], 3.1 mg/kg; in that of `O=C(Nc1ccc(Br)cc1)Nc1nc2ccc3ccccc3c2s1` [Table 15: p-bromophenyl], 50 mg/kg.
Turning to `Cc1ccc(NC(=O)Nc2nc3ccc4ccccc4c3s2)cc1` [Table 15: p-tolyl], the minimal effective dose is over 25 mg/kg.
The value for `O=C(Nc1ccccc1)Nc1nc2ccc3ccccc3c2s1` [Table 15: phenyl] was 0.8 mg/kg; that for `O=C(Nc1nc2ccc3ccccc3c2s1)Nc1cccc2ccccc12` [Table 15: α-naphthyl] was 0.4 mg/kg.
